ChEMBL document CHEMBL1130628, “Synthesis and antiproliferative activity of a cyclic analog of dolastatin 10” (Bioorg Med Chem Lett, 1998)
pIC50: −log10 of the molar value.

Tests used:
[1] = test system: L1210; assay: Compound was evaluated for antiproliferative activity against murine leukemia (L1210) cell lines.; type: functional, cell-based; settings: Mus musculus
[2] = test system: HT-29; assay: Compound was evaluated for antiproliferative activity against human colon adenocarcinoma (HT-29) cell lines.; type: functional, cell-based
[3] = target: T1, Tubulin alpha chain (Sus scrofa, UniProt P02550); assay: Compound was tested in vitro for inhibition of tubulin polymerization.; type: functional
T1 sequence (P02550 whole entry, looked up): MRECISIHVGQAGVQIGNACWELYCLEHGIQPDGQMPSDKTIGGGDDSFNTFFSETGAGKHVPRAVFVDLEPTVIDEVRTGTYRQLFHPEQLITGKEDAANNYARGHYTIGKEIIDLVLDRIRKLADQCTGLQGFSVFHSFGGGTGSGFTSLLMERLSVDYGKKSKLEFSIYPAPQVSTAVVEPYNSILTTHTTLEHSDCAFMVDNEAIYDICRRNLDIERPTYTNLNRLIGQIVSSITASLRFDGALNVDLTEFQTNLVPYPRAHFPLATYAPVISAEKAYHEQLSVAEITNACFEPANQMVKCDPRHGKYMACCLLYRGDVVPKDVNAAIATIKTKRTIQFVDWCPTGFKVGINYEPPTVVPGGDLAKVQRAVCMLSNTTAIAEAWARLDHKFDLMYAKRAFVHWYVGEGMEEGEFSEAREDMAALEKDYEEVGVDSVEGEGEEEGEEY

[4] = target: T1, Tubulin alpha chain; assay: Compound was tested in vitro for inhibition of tubulin polymerization; type: functional
[5] = test system: L1210; assay: Compound was evaluated for antiproliferative activity against murine leukemia (L1210) cell lines; type: functional, cell-based; settings: Mus musculus

Row | Structure (SMILES) | pIC50 [1] | pIC50 [2] | pIC50 [3] | pIC50 [4] | pIC50 [5]
1 | CC[C@H](C)[C@@H]([C@@H](CC(=O)N1CCC[C@H]1[C@H](OC)C(C)C(=O)NC(Cc1ccccc1)c1nccs1)OC)N(C)C(=O)[C@@H](NC(=O)[C@H](C(C)C)N(C)C)C(C)C (single isomer, unassigned) [DOLASTATIN-10] | 10.52 | 10.22 | 5.66 |  | 
2 | CC[C@H](C)[C@H]1[C@H](OC)CC(=O)N2CCC[C@H]2[C@H](OC)[C@H](C)C(=O)N[C@@H](Cc2ccccc2)c2nc(cs2)C(=O)O[C@H](C)[C@H](N(C)C)C(=O)N[C@@H](C(C)C)C(=O)N1C |  | 7.23 |  | 4.41 | 6.96
